Assay results as given in PubChem BioAssay (NCI).
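Protocol summary: plate cells (96-well), add compound at 5 concentrations, incubate 48 h, interpolate endpoints linearly. At the GI50, growth is halved. TGI marks complete inhibition of growth.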

How the values were obtained:
Assay in all cases: NCI anticancer screen, dose series, 48 h
786-0 renal = test system: 786-0 renal
A498 renal = test system: A498 renal
A549 NSCLC = test system: A549 NSCLC
ACHN renal = test system: ACHN renal
BT-549 breast = test system: BT-549 breast
CAKI-1 renal = test system: CAKI-1 renal
CCRF-CEM leukemia = test system: CCRF-CEM leukemia
COLO 205 colon = test system: COLO 205 colon
DU-145 prostate = test system: DU-145 prostate
HCC-2998 colon = test system: HCC-2998 colon
HCT-116 colon = test system: HCT-116 colon
HCT-15 colon = test system: HCT-15 colon
HOP-62 NSCLC = test system: HOP-62 NSCLC
HS 578T breast = test system: HS 578T breast
HT29 colon = test system: HT29 colon
IGROV1 ovarian = test system: IGROV1 ovarian
K-562 leukemia = test system: K-562 leukemia
KM12 colon = test system: KM12 colon
LOX IMVI melanoma = test system: LOX IMVI melanoma
M14 melanoma = test system: M14 melanoma
MALME-3M melanoma = test system: MALME-3M melanoma
MCF7 breast = test system: MCF7 breast
MDA-MB-231 breast = test system: MDA-MB-231 breast
MDA-MB-435 = test system: MDA-MB-435
MOLT-4 leukemia = test system: MOLT-4 leukemia
NCI-H226 lung = test system: NCI-H226 lung
NCI-H23 lung = test system: NCI-H23 lung
NCI-H460 lung = test system: NCI-H460 lung
NCI-H522 lung = test system: NCI-H522 lung
NCI/ADR-RES ovarian = test system: NCI/ADR-RES ovarian
OVCAR-3 ovarian = test system: OVCAR-3 ovarian
OVCAR-4 ovarian = test system: OVCAR-4 ovarian
OVCAR-5 ovarian = test system: OVCAR-5 ovarian
OVCAR-8 ovarian = test system: OVCAR-8 ovarian
PC-3 prostate = test system: PC-3 prostate
RPMI-8226 leukemia = test system: RPMI-8226 leukemia
RXF 393 renal = test system: RXF 393 renal
SF-268 CNS = test system: SF-268 CNS
SF-295 CNS = test system: SF-295 CNS
SF-539 CNS = test system: SF-539 CNS
SK-MEL-2 melanoma = test system: SK-MEL-2 melanoma
SK-MEL-28 melanoma = test system: SK-MEL-28 melanoma
SK-MEL-5 melanoma = test system: SK-MEL-5 melanoma
SK-OV-3 ovarian = test system: SK-OV-3 ovarian
SN12C renal = test system: SN12C renal
SNB-19 CNS = test system: SNB-19 CNS
SNB-75 CNS = test system: SNB-75 CNS
SR leukemia = test system: SR leukemia
SW-620 colon = test system: SW-620 colon
T-47D breast = test system: T-47D breast
U251 CNS = test system: U251 CNS
UACC-257 melanoma = test system: UACC-257 melanoma
UACC-62 melanoma = test system: UACC-62 melanoma
UO-31 renal = test system: UO-31 renal
EKVX NSCLC = test system: EKVX NSCLC
HOP-92 NSCLC = test system: HOP-92 NSCLC
TK-10 renal = test system: TK-10 renal

Work on O=C(O)c1ccc(NS(=O)(=O)c2cccc3cccnc23)cc1 yielded a GI50 (786-0 renal) greater than 100 µM, a TGI (786-0 renal) greater than 100 µM and a GI50 (A498 renal) greater than 100 µM. It also gave a TGI (A498 renal) greater than 100 µM, a GI50 (A549 NSCLC) greater than 100 µM and a TGI (A549 NSCLC) greater than 100 µM. The GI50 (ACHN renal) was greater than 100 µM, the TGI (ACHN renal) was greater than 100 µM and the GI50 (BT-549 breast) was greater than 100 µM. The TGI (BT-549 breast) was greater than 100 µM, the GI50 (CAKI-1 renal) was greater than 100 µM and the TGI (CAKI-1 renal) was greater than 100 µM. It also gave a GI50 (CCRF-CEM leukemia) greater than 100 µM, a TGI (CCRF-CEM leukemia) greater than 100 µM and a GI50 (COLO 205 colon) greater than 100 µM. The TGI (COLO 205 colon) was greater than 100 µM, the GI50 (DU-145 prostate) was greater than 100 µM and the TGI (DU-145 prostate) was greater than 100 µM. The GI50 (HCC-2998 colon) was greater than 100 µM, the TGI (HCC-2998 colon) was greater than 100 µM and the GI50 (HCT-116 colon) was greater than 100 µM. For the same molecule, the TGI (HCT-116 colon) was greater than 100 µM, the GI50 (HCT-15 colon) was greater than 100 µM and the TGI (HCT-15 colon) was greater than 100 µM. It also gave a GI50 (HOP-62 NSCLC) greater than 100 µM, a TGI (HOP-62 NSCLC) greater than 100 µM and a GI50 (HS 578T breast) greater than 100 µM. It also gave a TGI (HS 578T breast) greater than 100 µM, a GI50 (HT29 colon) greater than 100 µM and a TGI (HT29 colon) greater than 100 µM. For the same molecule, the GI50 (IGROV1 ovarian) was greater than 100 µM, the TGI (IGROV1 ovarian) was greater than 100 µM and the GI50 (K-562 leukemia) was greater than 100 µM. For the same molecule, the TGI (K-562 leukemia) was greater than 100 µM, the GI50 (KM12 colon) was greater than 100 µM and the TGI (KM12 colon) was greater than 100 µM. The GI50 (LOX IMVI melanoma) was greater than 100 µM, the TGI (LOX IMVI melanoma) was greater than 100 µM and the GI50 (M14 melanoma) was greater than 100 µM. For the same molecule, the TGI (M14 melanoma) was greater than 100 µM, the GI50 (MALME-3M melanoma) was greater than 100 µM and the TGI (MALME-3M melanoma) was greater than 100 µM. For the same molecule, the GI50 (MCF7 breast) was greater than 100 µM, the TGI (MCF7 breast) was greater than 100 µM and the GI50 (MDA-MB-231 breast) was greater than 100 µM. For the same molecule, the TGI (MDA-MB-231 breast) was greater than 100 µM, the GI50 (MDA-MB-435) was greater than 100 µM and the TGI (MDA-MB-435) was greater than 100 µM. It also gave a GI50 (MOLT-4 leukemia) greater than 100 µM, a TGI (MOLT-4 leukemia) greater than 100 µM and a GI50 (NCI-H226 lung) greater than 100 µM. For the same molecule, the TGI (NCI-H226 lung) was greater than 100 µM, the GI50 (NCI-H23 lung) was greater than 100 µM and the TGI (NCI-H23 lung) was greater than 100 µM. It also gave a GI50 (NCI-H460 lung) greater than 100 µM, a TGI (NCI-H460 lung) greater than 100 µM and a GI50 (NCI-H522 lung) greater than 100 µM. It also gave a TGI (NCI-H522 lung) greater than 100 µM, a GI50 (NCI/ADR-RES ovarian) greater than 100 µM and a TGI (NCI/ADR-RES ovarian) greater than 100 µM. It also gave a GI50 (OVCAR-3 ovarian) greater than 100 µM, a TGI (OVCAR-3 ovarian) greater than 100 µM and a GI50 (OVCAR-4 ovarian) greater than 100 µM. The TGI (OVCAR-4 ovarian) was greater than 100 µM, the GI50 (OVCAR-5 ovarian) was greater than 100 µM and the TGI (OVCAR-5 ovarian) was greater than 100 µM. It also gave a GI50 (OVCAR-8 ovarian) greater than 100 µM, a TGI (OVCAR-8 ovarian) greater than 100 µM and a GI50 (PC-3 prostate) greater than 100 µM. It also gave a TGI (PC-3 prostate) greater than 100 µM, a GI50 (RPMI-8226 leukemia) greater than 100 µM and a TGI (RPMI-8226 leukemia) greater than 100 µM. The GI50 (RXF 393 renal) was greater than 100 µM, the TGI (RXF 393 renal) was greater than 100 µM and the GI50 (SF-268 CNS) was greater than 100 µM. It also gave a TGI (SF-268 CNS) greater than 100 µM, a GI50 (SF-295 CNS) greater than 100 µM and a TGI (SF-295 CNS) greater than 100 µM. It also gave a GI50 (SF-539 CNS) greater than 100 µM, a TGI (SF-539 CNS) greater than 100 µM and a GI50 (SK-MEL-2 melanoma) greater than 100 µM. It also gave a TGI (SK-MEL-2 melanoma) greater than 100 µM, a GI50 (SK-MEL-28 melanoma) greater than 100 µM and a TGI (SK-MEL-28 melanoma) greater than 100 µM. The GI50 (SK-MEL-5 melanoma) was greater than 100 µM, the TGI (SK-MEL-5 melanoma) was greater than 100 µM and the GI50 (SK-OV-3 ovarian) was greater than 100 µM. For the same molecule, the TGI (SK-OV-3 ovarian) was greater than 100 µM, the GI50 (SN12C renal) was greater than 100 µM and the TGI (SN12C renal) was greater than 100 µM. The GI50 (SNB-19 CNS) was greater than 100 µM, the TGI (SNB-19 CNS) was greater than 100 µM and the GI50 (SNB-75 CNS) was greater than 100 µM. The TGI (SNB-75 CNS) was greater than 100 µM, the GI50 (SR leukemia) was greater than 100 µM and the TGI (SR leukemia) was greater than 100 µM. For the same molecule, the GI50 (SW-620 colon) was greater than 100 µM, the TGI (SW-620 colon) was greater than 100 µM and the GI50 (T-47D breast) was greater than 100 µM. For the same molecule, the TGI (T-47D breast) was greater than 100 µM, the GI50 (U251 CNS) was greater than 100 µM and the TGI (U251 CNS) was greater than 100 µM. The GI50 (UACC-257 melanoma) was greater than 100 µM, the TGI (UACC-257 melanoma) was greater than 100 µM and the GI50 (UACC-62 melanoma) was greater than 100 µM. For the same molecule, the TGI (UACC-62 melanoma) was greater than 100 µM, the GI50 (UO-31 renal) was greater than 100 µM and the TGI (UO-31 renal) was greater than 100 µM.

O=C(Nc1ccc2oc(=O)c(C(=O)O)cc2c1)Oc1ccccc1 showed a TGI (786-0 renal) greater than 100 µM, a TGI (A498 renal) greater than 100 µM and a TGI (A549 NSCLC) greater than 100 µM. For the same molecule, the TGI (ACHN renal) was greater than 100 µM, the TGI (BT-549 breast) was greater than 100 µM and the TGI (CAKI-1 renal) was greater than 100 µM. The TGI (COLO 205 colon) was greater than 100 µM, the TGI (DU-145 prostate) was greater than 100 µM and the TGI (EKVX NSCLC) was greater than 100 µM. It also gave a TGI (HCC-2998 colon) greater than 100 µM, a TGI (HCT-116 colon) greater than 100 µM and a TGI (HCT-15 colon) greater than 100 µM. For the same molecule, the TGI (HOP-62 NSCLC) was greater than 100 µM, the TGI (HOP-92 NSCLC) was greater than 100 µM and the TGI (HS 578T breast) was greater than 100 µM. For the same molecule, the TGI (HT29 colon) was greater than 100 µM, the TGI (IGROV1 ovarian) was greater than 100 µM and the TGI (K-562 leukemia) was greater than 100 µM. For the same molecule, the TGI (KM12 colon) was greater than 100 µM, the TGI (LOX IMVI melanoma) was greater than 100 µM and the TGI (M14 melanoma) was greater than 100 µM. The TGI (MALME-3M melanoma) was greater than 100 µM, the TGI (MCF7 breast) was greater than 100 µM and the TGI (MDA-MB-231 breast) was greater than 100 µM. For the same molecule, the TGI (MDA-MB-435) was greater than 100 µM, the TGI (MOLT-4 leukemia) was greater than 100 µM and the TGI (NCI-H226 lung) was greater than 100 µM. For the same molecule, the TGI (NCI-H23 lung) was greater than 100 µM, the TGI (NCI-H460 lung) was greater than 100 µM and the TGI (NCI-H522 lung) was greater than 100 µM. It also gave a TGI (NCI/ADR-RES ovarian) greater than 100 µM, a TGI (OVCAR-3 ovarian) greater than 100 µM and a TGI (OVCAR-4 ovarian) greater than 100 µM. It also gave a TGI (OVCAR-5 ovarian) greater than 100 µM, a TGI (OVCAR-8 ovarian) greater than 100 µM and a TGI (PC-3 prostate) greater than 100 µM. It also gave a TGI (RPMI-8226 leukemia) greater than 100 µM, a TGI (RXF 393 renal) greater than 100 µM and a TGI (SF-268 CNS) greater than 100 µM. The TGI (SF-295 CNS) was greater than 100 µM, the TGI (SF-539 CNS) was greater than 100 µM and the TGI (SK-MEL-2 melanoma) was greater than 100 µM. The TGI (SK-MEL-28 melanoma) was greater than 100 µM, the TGI (SK-MEL-5 melanoma) was greater than 100 µM and the TGI (SK-OV-3 ovarian) was greater than 100 µM. It also gave a TGI (SN12C renal) greater than 100 µM, a TGI (SNB-19 CNS) greater than 100 µM and a TGI (SNB-75 CNS) greater than 100 µM. The TGI (SR leukemia) was greater than 100 µM, the TGI (SW-620 colon) was greater than 100 µM and the TGI (T-47D breast) was greater than 100 µM. It also gave a TGI (TK-10 renal) greater than 100 µM, a TGI (U251 CNS) greater than 100 µM and a TGI (UACC-257 melanoma) greater than 100 µM. It also gave a TGI (UACC-62 melanoma) greater than 100 µM and a TGI (UO-31 renal) greater than 100 µM.
